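Step 1: Grow cells in 96-well plates. Step 2: Expose to compound for 48 hours at 5 concentrations. Step 3: Interpolate endpoints linearly; if unreached, use highest concentration. GI50 marks 50% less growth.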 The source made the active and inactive calls. Cut-off read from the data, not from the text of the source: active = GI50 up to about 1.1 µM and inactive = higher.
Experiments:
Assay in all cases: NCI-60 cell line screen, 48 h
RXF 393 = test system: RXF 393
MCF7 = test system: MCF7
COLO 205 = test system: COLO 205
OVCAR-5 = test system: OVCAR-5
NCI-H226 = test system: NCI-H226
ACHN = test system: ACHN
UACC-62 = test system: UACC-62
TK-10 = test system: TK-10
NCI/ADR-RES = test system: NCI/ADR-RES
OVCAR-8 = test system: OVCAR-8
SF-539 = test system: SF-539
SK-MEL-5 = test system: SK-MEL-5
NCI-H522 = test system: NCI-H522
NCI-H460 = test system: NCI-H460
HT-29 = test system: HT-29
PC-3 = test system: PC-3
DU-145 = test system: DU-145
MDA-N = test system: MDA-N
SF-268 = test system: SF-268
UACC-257 = test system: UACC-257

CC(C)(C)C1CCC2c3c([nH]c4ccccc34)C3C(=O)N(c4cccc(Cl)c4)C(=O)C3C2C1 (stereo not given)
GI50 (RXF 393): 8.36 µM (inactive) | GI50 (MCF7): 2.06 µM (inactive) | GI50 (COLO 205): 12 µM (inactive) | GI50 (OVCAR-5): 13.5 µM (inactive) | GI50 (NCI-H226): 19 µM (inactive) | GI50 (ACHN): 9.33 µM (inactive) | GI50 (UACC-62): 12.9 µM (inactive) | GI50 (TK-10): 16.8 µM (inactive) | GI50 (NCI/ADR-RES): 13.6 µM (inactive) | GI50 (OVCAR-8): 17.7 µM (inactive) | GI50 (SF-539): 17.5 µM (inactive) | GI50 (SK-MEL-5): 13.5 µM (inactive) | GI50 (NCI-H522): 15.8 µM (inactive) | GI50 (NCI-H460): 4.63 µM (inactive) | GI50 (HT-29): 6.38 µM (inactive) | GI50 (PC-3): 7.1 µM (inactive) | GI50 (DU-145): 11.7 µM (inactive) | GI50 (MDA-N): 11 µM (inactive) | GI50 (SF-268): 13 µM (inactive) | GI50 (UACC-257): 9.33 µM (inactive)

CCn1c2ccc(C(=O)CCCN(C)C)cc2c2cc(C(=O)CCCN(C)C)ccc21
GI50 (RXF 393): 1.68 µM (inactive) | GI50 (MCF7): 0.659 µM (active) | GI50 (COLO 205): 1.06 µM (active) | GI50 (OVCAR-5): 1.79 µM (inactive) | GI50 (NCI-H226): 2.74 µM (inactive) | GI50 (ACHN): 0.759 µM (active) | GI50 (UACC-62): 7.59 µM (inactive) | GI50 (TK-10): 1.98 µM (inactive) | GI50 (NCI/ADR-RES): 4.93 µM (inactive) | GI50 (OVCAR-8): 0.533 µM (active) | GI50 (SF-539): 0.805 µM (active) | GI50 (SK-MEL-5): 4.69 µM (inactive) | GI50 (NCI-H522): 3.04 µM (inactive) | GI50 (NCI-H460): 0.421 µM (active) | GI50 (HT-29): 0.509 µM (active) | GI50 (PC-3): 1.3 µM (inactive) | GI50 (DU-145): 2.52 µM (inactive) | GI50 (MDA-N): 2.05 µM (inactive) | GI50 (SF-268): 1.75 µM (inactive) | GI50 (UACC-257): 3.44 µM (inactive)

CCOC(=O)c1cc([N+](=O)[O-])cc([N+](=O)[O-])c1Sc1[nH]cnc2ncnc1-2
GI50 (RXF 393): 1.82 µM (inactive) | GI50 (MCF7): 1.61 µM (inactive) | GI50 (COLO 205): 2.17 µM (inactive) | GI50 (OVCAR-5): 9.71 µM (inactive) | GI50 (NCI-H226): 24.1 µM (inactive) | GI50 (ACHN): 1.96 µM (inactive) | GI50 (UACC-62): 4.5 µM (inactive) | GI50 (TK-10): 4.5 µM (inactive) | GI50 (NCI/ADR-RES): 3.11 µM (inactive) | GI50 (OVCAR-8): 1.93 µM (inactive) | GI50 (SF-539): 2.92 µM (inactive) | GI50 (SK-MEL-5): 5.94 µM (inactive) | GI50 (NCI-H522): 1.55 µM (inactive) | GI50 (NCI-H460): 8.81 µM (inactive) | GI50 (HT-29): 2.37 µM (inactive) | GI50 (PC-3): 3.73 µM (inactive) | GI50 (DU-145): 1.31 µM (inactive) | GI50 (MDA-N): 1.82 µM (inactive) | GI50 (SF-268): 3.32 µM (inactive) | GI50 (UACC-257): 6.21 µM (inactive)

CO[P@@]1(=O)O[C@@H](c2ccccc2)[C@H](O)[C@@]1(O)c1ccccc1
GI50 (RXF 393): > 100 µM (inactive) | GI50 (MCF7): > 100 µM (inactive) | GI50 (COLO 205): > 100 µM (inactive) | GI50 (OVCAR-5): > 100 µM (inactive) | GI50 (NCI-H226): > 100 µM (inactive) | GI50 (ACHN): > 100 µM (inactive) | GI50 (UACC-62): > 100 µM (inactive) | GI50 (TK-10): > 100 µM (inactive) | GI50 (NCI/ADR-RES): > 100 µM (inactive) | GI50 (OVCAR-8): > 100 µM (inactive) | GI50 (SF-539): > 100 µM (inactive) | GI50 (SK-MEL-5): > 100 µM (inactive) | GI50 (NCI-H522): > 100 µM (inactive) | GI50 (NCI-H460): > 100 µM (inactive) | GI50 (HT-29): 45.6 µM (inactive) | GI50 (PC-3): > 100 µM (inactive) | GI50 (DU-145): > 100 µM (inactive) | GI50 (MDA-N): > 100 µM (inactive) | GI50 (SF-268): > 100 µM (inactive) | GI50 (UACC-257): > 100 µM (inactive)

CC1=CC(=O)/C(=C/NC(=S)NCc2ccccc2)C(=O)O1
GI50 (RXF 393): > 100 µM (inactive) | GI50 (MCF7): > 100 µM (inactive) | GI50 (COLO 205): > 100 µM (inactive) | GI50 (OVCAR-5): > 100 µM (inactive) | GI50 (NCI-H226): > 100 µM (inactive) | GI50 (ACHN): > 100 µM (inactive) | GI50 (UACC-62): > 100 µM (inactive) | GI50 (TK-10): > 100 µM (inactive) | GI50 (NCI/ADR-RES): > 100 µM (inactive) | GI50 (OVCAR-8): > 100 µM (inactive) | GI50 (SF-539): > 100 µM (inactive) | GI50 (SK-MEL-5): > 100 µM (inactive) | GI50 (NCI-H522): > 100 µM (inactive) | GI50 (NCI-H460): > 100 µM (inactive) | GI50 (HT-29): > 100 µM (inactive) | GI50 (PC-3): > 100 µM (inactive) | GI50 (DU-145): > 100 µM (inactive) | GI50 (MDA-N): > 100 µM (inactive) | GI50 (SF-268): > 100 µM (inactive) | GI50 (UACC-257): > 100 µM (inactive)

O=C(Nc1ccc([As](=O)(O)O)cc1)Nc1cccc(Cl)c1Cl
GI50 (RXF 393): 22.2 µM (inactive) | GI50 (MCF7): > 100 µM (inactive) | GI50 (COLO 205): > 100 µM (inactive) | GI50 (OVCAR-5): > 100 µM (inactive) | GI50 (NCI-H226): > 100 µM (inactive) | GI50 (ACHN): > 100 µM (inactive) | GI50 (UACC-62): > 100 µM (inactive) | GI50 (TK-10): 89.1 µM (inactive) | GI50 (NCI/ADR-RES): > 100 µM (inactive) | GI50 (OVCAR-8): 46.2 µM (inactive) | GI50 (SF-539): > 100 µM (inactive) | GI50 (SK-MEL-5): > 100 µM (inactive) | GI50 (NCI-H522): > 100 µM (inactive) | GI50 (NCI-H460): > 100 µM (inactive) | GI50 (HT-29): > 100 µM (inactive) | GI50 (PC-3): 83.9 µM (inactive) | GI50 (DU-145): > 100 µM (inactive) | GI50 (MDA-N): > 100 µM (inactive) | GI50 (SF-268): 45.7 µM (inactive) | GI50 (UACC-257): > 100 µM (inactive)

CC(C)(Cl)C(Br)CCC(C)(Cl)C(Br)CBr (stereo not given)
GI50 (RXF 393): 32.7 µM (inactive) | GI50 (MCF7): 17.6 µM (inactive) | GI50 (COLO 205): 18.5 µM (inactive) | GI50 (OVCAR-5): 18.7 µM (inactive) | GI50 (NCI-H226): 25.4 µM (inactive) | GI50 (ACHN): 21.2 µM (inactive) | GI50 (UACC-62): 38.2 µM (inactive) | GI50 (TK-10): 35.4 µM (inactive) | GI50 (NCI/ADR-RES): 31.7 µM (inactive) | GI50 (OVCAR-8): > 100 µM (inactive) | GI50 (SF-539): 24.5 µM (inactive) | GI50 (SK-MEL-5): 18.2 µM (inactive) | GI50 (NCI-H522): 16.3 µM (inactive) | GI50 (NCI-H460): 20 µM (inactive) | GI50 (HT-29): 19.5 µM (inactive) | GI50 (PC-3): 27.2 µM (inactive) | GI50 (DU-145): 29 µM (inactive) | GI50 (MDA-N): 31 µM (inactive) | GI50 (SF-268): 37.2 µM (inactive) | GI50 (UACC-257): 19.6 µM (inactive)
